Data on one substance can be found in patent US20130237478A1, “COMPOSITIONS AND METHODS FOR TREATMENT OF PERIPHERAL VASCULAR DISEASE” (TARIX PHARMACEUTICALS LTD., priority 2012, published 2013).

Positions of bridges follow the written chain, without caps; N, C: chain ends. No end group written: not given here.

What all share (format): in vivo, Balb/c mice
Series [1] has as its system hind limb ischemia. The experiment in a line: Semi-quantitative assessment of limb function in mouse hind limb ischemia model. An excerpt: (§1) A stable hind limb ischemia model has been described previously and is generally characterized by uniform ischemic damage useful for examining the effect of various therapies (Goto, et al. Tokai J Exp Clin Med, 31(3):128 2006; Kang Y, et al. PLoS One. 2009; 4(1):e4275)). The hind limb ischemia model in mice used in this example involves two ligations of the proximal end of the femoral artery and its dissection between the two ligatures. The surgery causes obstruction of the blood flow and subsequently leads to severe ischemic damage (Goto, et al.; Kang, et al.). In this experiment, healthy adult female Balb/c mice were used. Hind limb ischemia was induced in mice using protocols previously described. Briefly, Balb/c female mice were maintained on a standard diet with water available ad libitum. Mice were anesthetized and an incision was made in the skin in the inguinal area. The femoral artery was ligated twice with 6-0 silk thread and transected between the ligatures after this the wound was closed with 4-0 silk thread and the mouse was allowed to recover.
An Angiotensin (1-7) polypeptide composition (TXA127) and vehicle control (DPBS) were supplied as ready to use solutions and were stored at 4° C. until use. TXA127 was injected subcutaneously (500 μg/kg) daily starting on day 1, 24 hours after inducing ischemia, until the end of the study. […]
Semi-quantitative assessment of impaired use of the ischemic limb was performed once a week post-surgery using the scale shown in Table 6 (Stabile et al, Circulation 108(2):205 2003). […]
(§2) An Angiotensin (1-7) polypeptide composition (PanCyte) and vehicle control (DPBS) were supplied as ready to use solutions and were stored at 4° C. until use. […]
Semi-quantitative assessment of impaired use of the ischemic limb was performed once a week post-surgery using the scale shown in Table 6 above. […]
An Angiotensin (1-7) polypeptide composition (PanCyte, cyclized Asp^1-Arg^2-Val^3-Ser^4-Ile^5-His^6-Cys (SEQ ID NO:22)) and vehicle control (DPBS) were supplied as ready to use solutions and were stored at 4° C. until use. […]

The subject of series [2] is hind limb ischemia. The series can be described thus: Capillary density in muscle sections, mouse hind limb ischemia model. To be noted: Example 2, 49 days after treatment beginning.
Source text: as §1, with “The” for “A stable hind limb ischemia”, “used in this example” for “has been described previously and”, “the same as” for “generally characterized by uniform ischemic damage useful”, “Example 1. Briefly,” for “examining”, “the” for “the effect of various therapies (Goto, et al. Tokai J Exp Clin Med, 31(3):128 2006; Kang Y, et al. PLoS One. 2009; 4(1):e4275)). The”
as §2
Sections of muscle samples were taken from the same areas in 6-7 animals from each group. Capillaries were counted under a microscope in a total 12 random fields from different sections. Density was expressed as the mean number of capillaries per field of view. […]

Series [3] in a line: Body weight of mice in hind limb ischemia studies. The settings on record: throughout the study. On the procedure: Body weight of animals was measured before the surgery and once weekly thereafter.
The model and procedures used for this example is the same as for those in Examples 1 and 2, unless otherwise specified.

As for “cyclized Asp^1-Arg^2-Val^3-Ser^4-Ile^5-His^6-Cys (SEQ ID NO:22) (DRVSIHC; bridge 4-7; not fully specified; printed as Asp1-Arg2-Val3-Ser4-Ile5-His6-Cys7) [PanCyte, cyclic angiotensin peptide]”, the “limb function vs control” value is listed as “improvement in limb function” in series [1] (Example 2, 500 μg/kg SC daily (2F), day 28); “improvement in limb function” in series [1] (Example 3, 1 μg/kg SC daily (2F), days 14 and 21); “improvement in limb function” in series [1] (Example 3, 50 μg/kg continuous infusion by Alzet pump (6F), days 14 and 21). Besides, the “capillary density (number of capillaries per field) vs control” value in series [2] (50 μg/kg SC daily) and in series [2] (500 μg/kg SC daily) was “significantly increased the number of capillaries” throughout. Moreover, the “body weight vs vehicle” value in series [3] (Example 2, 500 or 50 μg/kg SC daily) is recorded as “no statistically significant differences”; in series [3] (Example 3, 1-50 μg/kg SC), “no statistically significant differences”.
